One assay concerns the target T1, CD73 (Homo sapiens, UniProt P21589).
T1 construct: purchased R&D systems 5795-EN-010
T1 sequence (P21589 27-547 limits assumed): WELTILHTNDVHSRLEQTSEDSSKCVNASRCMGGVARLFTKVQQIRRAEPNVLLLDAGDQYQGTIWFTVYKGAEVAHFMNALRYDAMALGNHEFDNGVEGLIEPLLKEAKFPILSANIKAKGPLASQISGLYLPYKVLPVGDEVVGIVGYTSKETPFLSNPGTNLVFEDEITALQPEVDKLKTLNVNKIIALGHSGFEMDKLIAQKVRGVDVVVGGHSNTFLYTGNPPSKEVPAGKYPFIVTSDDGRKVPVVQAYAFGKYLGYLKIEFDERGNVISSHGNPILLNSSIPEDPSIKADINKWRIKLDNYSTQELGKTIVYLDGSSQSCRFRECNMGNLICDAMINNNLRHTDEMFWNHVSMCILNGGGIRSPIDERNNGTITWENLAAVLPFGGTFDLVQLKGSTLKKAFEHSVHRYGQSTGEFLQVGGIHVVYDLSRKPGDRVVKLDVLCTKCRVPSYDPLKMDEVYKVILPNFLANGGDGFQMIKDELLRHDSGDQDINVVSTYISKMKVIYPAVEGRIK
In words: In vitro enzymatic activity against CD73 (malachite green test using soluble CD73). Type of assay: biochemical. The settings on record: soluble CD73 36 ng/mL, 50 μM AMP, 30 minutes at 25° C. As to the method:
The malachite green test using soluble CD73, which is synthesized in vitro was used in the present invention to determine the characteristics of inhibitory activity of the compounds against CD73. The specific experimental procedures were as following:
1. The enzyme reaction in this experiment was carried out in 384-well plates, and CD73 (R&D systems #5795-EN-010) at a concentration of 36 ng/mL, the compounds at different concentrations and 50 μM AMP were incubated for 30 minutes at 25° C. in a 40 uL reaction system (consisting of 25 mM Tris pH 7.5, 5 mM MgCl2, and 0.005% Tween-20);
2. Then, 10 μL of malachite green solution (Sigma) was added to each well to terminate the reaction;
3. The concentration of resulting inorganic phosphate was determined according to the instructions of the reagent manufacturer;
4. The enzymatic activity of CD73 was calculated based on the concentration of the product, and then IC50 values were determined by non-linear regression analysis of the inhibition percentage of the compounds of the present invention at different concentrations.

Assay [1] has as its target T2, CD73 enzymatic activity expressed on the cell surface of MDA-MB-231 cells (Homo sapiens, UniProt P21589).
T2 construct: Human breast cancer cells MDA-MB-231 that endogenously express CD73 were used; host or cells: MDA-MB-231
T2 sequence (P21589 27-549): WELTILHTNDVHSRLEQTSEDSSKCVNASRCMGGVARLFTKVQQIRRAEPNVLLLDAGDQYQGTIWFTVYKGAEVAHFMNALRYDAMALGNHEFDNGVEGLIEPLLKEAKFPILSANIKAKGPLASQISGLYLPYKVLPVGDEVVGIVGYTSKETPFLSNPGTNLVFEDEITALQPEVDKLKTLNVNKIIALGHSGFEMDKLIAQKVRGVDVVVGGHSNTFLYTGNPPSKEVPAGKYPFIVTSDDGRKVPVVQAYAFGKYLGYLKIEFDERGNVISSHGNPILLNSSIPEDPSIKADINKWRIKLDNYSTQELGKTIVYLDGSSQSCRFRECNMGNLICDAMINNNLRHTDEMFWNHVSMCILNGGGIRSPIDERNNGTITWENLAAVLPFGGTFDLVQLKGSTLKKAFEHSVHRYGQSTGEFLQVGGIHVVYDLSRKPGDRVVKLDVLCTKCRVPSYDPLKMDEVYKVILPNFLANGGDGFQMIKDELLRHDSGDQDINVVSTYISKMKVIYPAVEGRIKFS
Nature of the assay: Inhibition of CD73 enzymatic activity on the cell surface (Cell Titer Glo (CTG) experiment), MDA-MB-231 cells. Type of assay: cell-based. The following applies: MDA-MB-231 cells endogenously expressing CD73, AMP, 37° C. for 2 hours, CTG readout; read-out: Cellular activity IC50. As for the experimental part: Human breast cancer cells MDA-MB-231 that endogenously express CD73 were used in the present invention to evaluate the inhibition of the compound against the CD73 enzymatic activity expressed on the cell surface. The cells used were from the Cell Bank of the Chinese Academy of Sciences. The specific experimental procedures were as follows:
1. Before the test, MDA-MB231 cells were seeded to a 96-well plate at 20000 cells/well;
2. In RPMI1640, 10% fetal bovine serum (Gibco, 10099-141), placed in a 5% CO2 incubator at 37° C. overnight (the cells were washed three times by using a serum-free RPMI medium right before the test):
3. 50 μl of serum-free media containing the compounds at different concentrations were added to the cells and incubated for 15 minutes;
4. 25 μL of 1.2 mM AMP was added for incubation at 37° C. for 2 hours, 25 μL of supernatant was then collected from the cells and mix with 25 μL of 100 μM ATP, and then the concentration of AMP in the samples was determined by CTG (Promega, #G7573);
5. Then, a reduction ratio of the substrate AMP level in the cell culture supernatant collected after the reaction was quantitatively determined to evaluate the inhibitory effects of the examples of the present invention and the positive compounds against the CD73 enzymatic activity on the cell surface;
6. Finally, the concentration of the compound leading to half maximal inhibition of enzymatic activity (IC50) was determined using a four-parameter non-linear logistic model curve fit in Graphpad Prism.

A word on the IC50: it is the concentration needed to halve the response being measured.

For `C[C@@H](Nc1cc(Cl)nc2c1cnn2[C@@H]1O[C@H](COP(=O)(O)CP(=O)(O)O)[C@@H](O)[C@H]1O)c1ccc(S(F)(F)(F)(F)F)cc1` [Example 7, (((((2R,3S,4R,5R)-5-(6-chloro-4-(((R)-1-(4-(pentafluoro-λ^6-sulfanyl)phenyl)ethyl)amino)-1H-pyrazolo[3,4-b]pyridin-1-yl)-3,4-dihydroxytetrahydrofuran-2-yl)methoxy)(hydroxy)phosphoryl)methyl) phosphonic acid], the IC50 at CD73 turned out to be 15.1 nM; in assay [1], 1.61 nM.
The like results for `C[C@H](Nc1cc(Cl)nc2c1cnn2[C@@H]1O[C@H](COP(=O)(O)CP(=O)(O)O)[C@@H](O)[C@H]1O)c1cccc(S(F)(F)(F)(F)F)c1` [Example 8, (((((2R,3S,4R,5R)-5-(6-chloro-4-(((S)-1-(3-(pentafluoro-λ^6-sulfanyl)phenyl)ethyl)amino)-1H-pyrazolo[3,4-b]pyridin-1-yl)-3,4-dihydroxytetrahydrofuran-2-yl)methoxy)(hydroxy)phosphoryl)methyl) phosphonic acid] were, in that order, 2 nM and 0.59 nM.
In the case of `C[C@@H](Nc1cc(Cl)nc2c1cnn2[C@@H]1O[C@H](COP(=O)(O)CP(=O)(O)O)[C@@H](O)[C@H]1O)c1cccc(S(F)(F)(F)(F)F)c1` [Example 9, (((((2R,3S,4R,5R)-5-(6-chloro-4-(((R)-1-(3-(pentafluoro-λ^6-sulfanyl)phenyl)ethyl)amino)-1H-pyrazolo[3,4-b]pyridin-1-yl)-3,4-dihydroxytetrahydrofuran-2-yl)methoxy)(hydroxy)phosphoryl)methyl) phosphonic acid], the IC50 stood at 4.8 nM against CD73 and 1.45 nM in assay [1].
The like results for `O=P(O)(O)CP(=O)(O)OC[C@H]1O[C@@H](n2ncc3c(NCc4ccccc4S(F)(F)(F)(F)F)cc(Cl)nc32)[C@H](O)[C@@H]1O` [Example 10, (((((2R,3S,4R,5R)-5-(6-chloro-4-((2-(pentafluoro-λ^6-sulfanyl)phenylmethyl)amino)-1H-pyrazolo[3,4-b]pyridin-1-yl)-3,4-dihydroxytetrahydrofuran-2-yl)methoxy)(hydroxy)phosphoryl)methyl) phosphonic acid] were, in that order, 3.1 nM and 0.21 nM.
The corresponding values for `C[C@@H](Nc1cc(Cl)nc2c1cnn2[C@@H]1O[C@H](COP(=O)(O)CP(=O)(O)O)[C@@H](O)[C@H]1O)c1ccc(S(F)(F)(F)(F)F)cc1F` [Example 11, (((((2R,3S,4R,5R)-5-(6-chloro-4-(((R)-1-(2-fluoro-4-(pentafluoro-λ^6-sulfanyl)phenyl)ethyl)amino)-1H-pyrazolo[3,4-b]pyridin-1-yl)-3,4-dihydroxytetrahydrofuran-2-yl)methoxy)(hydroxy)phosphoryl)methyl) phosphonic acid] are 31.6 nM and 0.99 nM.
The like results for `O=P(O)(O)CP(=O)(O)OC[C@H]1O[C@@H](n2ncc3c(N[C@H]4CCc5ccccc54)cc(Cl)nc32)[C@H](O)[C@@H]1O` [Example 12, (((((2R,3S,4R,5R)-5-(6-chloro-4-(((S)-2,3-dihydro-1H-inden-1-yl)amino)-1H-pyrazolo[3,4-b]pyridin-1-yl)-3,4-dihydroxytetrahydrofuran-2-yl)methoxy)(hydroxy)phosphoryl)methyl)phosphonic acid] were, in that order, 0.26 nM and 0.26 nM.
Regarding `O=P(O)(O)CP(=O)(O)OC[C@H]1O[C@@H](n2ncc3c(N[C@@H]4CCc5ccccc54)cc(Cl)nc32)[C@H](O)[C@@H]1O` [Example 13, (((((2R,3S,4R,5R)-5-(6-chloro-4-(((R)-2,3-dihydro-1H-inden-1-yl)amino)-1H-pyrazolo[3,4-b]pyridin-1-yl)-3,4-dihydroxytetrahydrofuran-2-yl)methoxy)(hydroxy)phosphoryl)methyl)phosphonic acid], the IC50 worked out at 0.42 nM against CD73 and 0.13 nM in assay [1].
The corresponding values for `CN(c1cc(Cl)nc2c1cnn2[C@@H]1O[C@H](COP(=O)(O)CP(=O)(O)O)[C@@H](O)[C@H]1O)[C@H]1CCc2ccccc21` [Example 14, (((((2R,3S,4R,5R)-5-(6-chloro-4-(((S)-2,3-dihydro-1H-inden-1-yl)(methyl)amino)-1H-pyrazolo[3,4-b]pyridin-1-yl)-3,4-dihydroxytetrahydrofuran-2-yl)methoxy)(hydroxy)phosphoryl)methyl)phosphonic acid] are 0.16 nM and 0.45 nM.
As for `CN(c1cc(Cl)nc2c1cnn2[C@@H]1O[C@H](COP(=O)(O)CP(=O)(O)O)[C@@H](O)[C@H]1O)[C@@H]1CCc2ccccc21` [Example 15, (((((2R,3S,4R,5R)-5-(6-chloro-4-(((R)-2,3-dihydro-1H-inden-1-yl)(methyl)amino)-1H-pyrazolo[3,4-b]pyridin-1-yl)-3,4-dihydroxytetrahydrofuran-2-yl)methoxy)(hydroxy)phosphoryl)methyl)phosphonic acid], the IC50 against CD73 turned out to be 0.97 nM; in assay [1], 0.121 nM.
The corresponding values for `O=P(O)(O)CP(=O)(O)OC[C@H]1O[C@@H](n2ncc3c(N[C@@H]4CCc5cc(F)ccc54)cc(Cl)nc32)[C@H](O)[C@@H]1O` [Example 16, (((((2R,3S,4R,5R)-5-(6-chloro-4-(((R)-5-fluoro-2,3-dihydro-1H-inden-1-yl)amino)-1H-pyrazolo[3,4-b]pyridin-1-yl)-3,4-dihydroxytetrahydrofuran-2-yl)methoxy)(hydroxy)phosphoryl)methyl)phosphonic acid] are 0.34 nM and 0.176 nM.
Regarding `O=P(O)(O)CP(=O)(O)OC[C@H]1O[C@@H](n2ncc3c(N[C@@H]4CCc5ccc(F)cc54)cc(Cl)nc32)[C@H](O)[C@@H]1O` [Example 17, (((((2R,3S,4R,5R)-5-(6-chloro-4-(((R)-6-fluoro-2,3-dihydro-1H-inden-1-yl)amino)-1H-pyrazolo[3,4-b]pyridin-1-yl)-3,4-dihydroxytetrahydrofuran-2-yl)methoxy)(hydroxy)phosphoryl)methyl)phosphonic acid], the values for the IC50 (on CD73; in assay [1]) were 0.32 nM and 0.14 nM, respectively.
The like results for `O=P(O)(O)CP(=O)(O)OC[C@H]1O[C@@H](n2ncc3c(N[C@@H]4CCc5cc(Cl)ccc54)cc(Cl)nc32)[C@H](O)[C@@H]1O` [Example 18, (((((2R,3S,4R,5R)-5-(6-chloro-4-(((R)-5-chloro-2,3-dihydro-1H-inden-1-yl)amino)-1H-pyrazolo[3,4-b]pyridin-1-yl)-3,4-dihydroxytetrahydrofuran-2-yl)methoxy)(hydroxy)phosphoryl)methyl)phosphonic acid] were, in that order, 1.67 nM and 0.24 nM.

Values taken from US12157755B2, “CD73 inhibitor, preparation method therefor and application thereof” (Abbisko Therapeutics Co., Ltd., priority 2019, dated 2024).
